# Experimental data taken from PubChem BioAssay AID1919016 (Molecular Pharmacology Branch, DTP, NCI, 2023).
# Tested on: NCI-H196 complex spheroid growth, percent test/control
# Assay: Anticancer human tumor NCI-H196 cell line growth inhibition [AhR];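 further: seven days of drug exposure starting three days after plating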;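 on viability, T/C: 100% = DMSO vehicle control wells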
# Conditions: for IC50: curve of first compound; for viability, T/C: stronger effect = lower value
# How it was run: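 Agents were dosed in half-log steps down from roughly clinical Cmax, or from 10 microM where Cmax was unknown, alone and with AhR antagonists. Read-out: percent test/control growth of tumor spheroids containing HUVEC and MSC stromal cells.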
# [1] = second compound 0.1 µM, first compound 0.00949 µM
# [2] = second compound 0.1 µM, first compound 0.03 µM
# [3] = second compound 0.1 µM, first compound 0.0949 µM
# [4] = second compound 0.1 µM, first compound 0.3 µM
# [5] = second compound 0.316 µM, first compound 0.00949 µM
# [6] = second compound 0.316 µM, first compound 0.03 µM
# [7] = second compound 0.316 µM, first compound 0.0949 µM
# [8] = second compound 0.316 µM, first compound 0.3 µM
# [9] = second compound 1 µM, first compound 0.00949 µM
# [10] = second compound 1 µM, first compound 0.03 µM
# [11] = second compound 1 µM, first compound 0.0949 µM
# [12] = second compound 1 µM, first compound 0.3 µM
# [13] = second compound 3.16 µM, first compound 0.00949 µM
# [14] = second compound 3.16 µM, first compound 0.03 µM
# [15] = second compound 3.16 µM, first compound 0.0949 µM
# [16] = second compound 3.16 µM, first compound 0.3 µM
# [17] = second compound 10 µM, first compound 0.00949 µM
# [18] = second compound 10 µM, first compound 0.03 µM
# [19] = second compound 10 µM, first compound 0.0949 µM
# [20] = second compound 10 µM, first compound 0.3 µM
# [21] = second compound 0.1 µM, first compound 0.000949 µM
# [22] = second compound 0.1 µM, first compound 0.003 µM
# [23] = second compound 0.316 µM, first compound 0.000949 µM
# [24] = second compound 0.316 µM, first compound 0.003 µM
# [25] = second compound 1 µM, first compound 0.000949 µM
# [26] = second compound 1 µM, first compound 0.003 µM
# [27] = second compound 3.16 µM, first compound 0.000949 µM
# [28] = second compound 3.16 µM, first compound 0.003 µM
# [29] = second compound 10 µM, first compound 0.000949 µM
# [30] = second compound 10 µM, first compound 0.003 µM
structure (smiles),measurement,setting,value
O=C(C=Cn1cnc(-c2cc(C(F)(F)F)cc(C(F)(F)F)c2)n1)NNc1cnccn1 + Cc1ccccc1N=Nc1ccc(NC(=O)c2ccnn2C)c(C)c1,IC50,second compound 0.1 µM,33.4 nM
same,IC50,second compound 0.316 µM,36.6 nM
same,IC50,second compound 1 µM,34.8 nM
same,IC50,second compound 3.16 µM,35.4 nM
same,IC50,second compound 10 µM,41.3 nM
same,"viability, T/C",[1],71.3%
same,"viability, T/C",[2],54.5%
same,"viability, T/C",[3],6.66%
same,"viability, T/C",[4],6.81%
same,"viability, T/C","second compound 0.1 µM, first compound 0.949 µM",5.42%
same,"viability, T/C","second compound 0.1 µM, first compound 3 µM",7.76%
same,"viability, T/C",[5],72.7%
same,"viability, T/C",[6],58.6%
same,"viability, T/C",[7],8.61%
same,"viability, T/C",[8],5.66%
same,"viability, T/C","second compound 0.316 µM, first compound 0.949 µM",6.01%
same,"viability, T/C","second compound 0.316 µM, first compound 3 µM",6.07%
same,"viability, T/C",[9],79.8%
same,"viability, T/C",[10],56%
same,"viability, T/C",[11],9.47%
same,"viability, T/C",[12],5.55%
same,"viability, T/C","second compound 1 µM, first compound 0.949 µM",8.58%
same,"viability, T/C","second compound 1 µM, first compound 3 µM",8.52%
same,"viability, T/C",[13],68.4%
same,"viability, T/C",[14],56.8%
same,"viability, T/C",[15],9.86%
same,"viability, T/C",[16],4.79%
same,"viability, T/C","second compound 3.16 µM, first compound 0.949 µM",7.89%
same,"viability, T/C","second compound 3.16 µM, first compound 3 µM",8.09%
same,"viability, T/C",[17],74.6%
same,"viability, T/C",[18],64%
same,"viability, T/C",[19],13.8%
same,"viability, T/C",[20],10.6%
same,"viability, T/C","second compound 10 µM, first compound 0.949 µM",8.84%
same,"viability, T/C","second compound 10 µM, first compound 3 µM",12.8%
CC(C)CC(NC(=O)C(Cc1ccccc1)NC(=O)c1cnccn1)B(O)O (stereo not given) + Cc1cncc(-c2nc(NCCc3c[nH]c4ccccc34)c3ncn(C(C)C)c3n2)c1,IC50,second compound 0.1 µM,7.65 nM
same,IC50,second compound 0.316 µM,8.51 nM
same,IC50,second compound 1 µM,7.35 nM
same,IC50,second compound 3.16 µM,9.9 nM
same,IC50,second compound 10 µM,5.54 nM
same,"viability, T/C",[21],98.2%
same,"viability, T/C",[22],109%
same,"viability, T/C",[1],37.6%
same,"viability, T/C",[2],1.78%
same,"viability, T/C",[3],1.16%
same,"viability, T/C",[4],1.38%
same,"viability, T/C",[23],95.2%
same,"viability, T/C",[24],99.1%
same,"viability, T/C",[5],45%
same,"viability, T/C",[6],1.25%
same,"viability, T/C",[7],2.43%
same,"viability, T/C",[8],1.51%
same,"viability, T/C",[25],102%
same,"viability, T/C",[26],98.7%
same,"viability, T/C",[9],36.1%
same,"viability, T/C",[10],1.32%
same,"viability, T/C",[11],1.62%
same,"viability, T/C",[12],0.94%
same,"viability, T/C",[27],105%
same,"viability, T/C",[28],103%
same,"viability, T/C",[13],51.9%
same,"viability, T/C",[14],0.84%
same,"viability, T/C",[15],0.89%
same,"viability, T/C",[16],2.1%
same,"viability, T/C",[29],83.2%
same,"viability, T/C",[30],95%
same,"viability, T/C",[17],15.8%
same,"viability, T/C",[18],0.72%
same,"viability, T/C",[19],0.96%
same,"viability, T/C",[20],1.09%
Nc1ncn(C2CC(O)C(CO)O2)c(=O)n1 (stereo not given) + Cc1cncc(-c2nc(NCCc3c[nH]c4ccccc34)c3ncn(C(C)C)c3n2)c1,IC50,second compound 0.1 µM,> 1000 nM
same,IC50,second compound 0.316 µM,> 1000 nM
same,IC50,second compound 1 µM,> 1000 nM
same,IC50,second compound 3.16 µM,> 1000 nM
same,IC50,second compound 10 µM,> 1000 nM
same,"viability, T/C","second compound 0.1 µM, first compound 0.00316 µM",110%
same,"viability, T/C","second compound 0.1 µM, first compound 0.01 µM",105%
same,"viability, T/C","second compound 0.1 µM, first compound 0.0316 µM",104%
same,"viability, T/C","second compound 0.1 µM, first compound 0.1 µM",97.9%
same,"viability, T/C","second compound 0.1 µM, first compound 0.316 µM",107%
same,"viability, T/C","second compound 0.1 µM, first compound 1 µM",99.8%
same,"viability, T/C","second compound 0.316 µM, first compound 0.00316 µM",106%
same,"viability, T/C","second compound 0.316 µM, first compound 0.01 µM",98.5%
same,"viability, T/C","second compound 0.316 µM, first compound 0.0316 µM",114%
same,"viability, T/C","second compound 0.316 µM, first compound 0.1 µM",104%
same,"viability, T/C","second compound 0.316 µM, first compound 0.316 µM",105%
same,"viability, T/C","second compound 0.316 µM, first compound 1 µM",105%
same,"viability, T/C","second compound 1 µM, first compound 0.00316 µM",122%
same,"viability, T/C","second compound 1 µM, first compound 0.01 µM",106%
same,"viability, T/C","second compound 1 µM, first compound 0.0316 µM",115%
same,"viability, T/C","second compound 1 µM, first compound 0.1 µM",96.3%
same,"viability, T/C","second compound 1 µM, first compound 0.316 µM",117%
same,"viability, T/C","second compound 1 µM, first compound 1 µM",103%
same,"viability, T/C","second compound 3.16 µM, first compound 0.00316 µM",102%
same,"viability, T/C","second compound 3.16 µM, first compound 0.01 µM",112%
same,"viability, T/C","second compound 3.16 µM, first compound 0.0316 µM",109%
same,"viability, T/C","second compound 3.16 µM, first compound 0.1 µM",111%
same,"viability, T/C","second compound 3.16 µM, first compound 0.316 µM",108%
same,"viability, T/C","second compound 3.16 µM, first compound 1 µM",109%
same,"viability, T/C","second compound 10 µM, first compound 0.00316 µM",96.2%
same,"viability, T/C","second compound 10 µM, first compound 0.01 µM",86.9%
same,"viability, T/C","second compound 10 µM, first compound 0.0316 µM",104%
same,"viability, T/C","second compound 10 µM, first compound 0.1 µM",89.6%
same,"viability, T/C","second compound 10 µM, first compound 0.316 µM",87.8%
same,"viability, T/C","second compound 10 µM, first compound 1 µM",86.1%
Nc1ncn(C2CC(O)C(CO)S2)c(=O)n1 (stereo not given) + Cc1cncc(-c2nc(NCCc3c[nH]c4ccccc34)c3ncn(C(C)C)c3n2)c1,IC50,second compound 0.1 µM,> 300 nM
same,IC50,second compound 0.316 µM,> 300 nM
same,IC50,second compound 1 µM,> 300 nM
same,IC50,second compound 3.16 µM,> 300 nM
same,IC50,second compound 10 µM,> 300 nM
same,"viability, T/C",[21],109%
same,"viability, T/C",[22],112%
same,"viability, T/C",[1],109%
same,"viability, T/C",[2],111%
same,"viability, T/C",[3],118%
same,"viability, T/C",[4],116%
same,"viability, T/C",[23],101%
same,"viability, T/C",[24],110%
same,"viability, T/C",[5],113%
same,"viability, T/C",[6],112%
same,"viability, T/C",[7],115%
same,"viability, T/C",[8],111%
same,"viability, T/C",[25],107%
same,"viability, T/C",[26],110%
same,"viability, T/C",[9],108%
same,"viability, T/C",[10],116%
same,"viability, T/C",[11],121%
same,"viability, T/C",[12],123%
same,"viability, T/C",[27],118%
same,"viability, T/C",[28],125%
same,"viability, T/C",[13],115%
same,"viability, T/C",[14],114%
same,"viability, T/C",[15],116%
same,"viability, T/C",[16],117%
same,"viability, T/C",[29],92.3%
same,"viability, T/C",[30],92.9%
same,"viability, T/C",[17],101%
same,"viability, T/C",[18],101%
same,"viability, T/C",[19],93.8%
same,"viability, T/C",[20],106%
Nc1ncn(C2CC(O)C(CO)S2)c(=O)n1 (stereo not given) + CC(CO)NC(=O)c1cc(-c2ccc(Cl)cc2)nn(-c2cnn(C)c2)c1=O,IC50,second compound 0.1 µM,> 300 nM
same,IC50,second compound 0.316 µM,> 300 nM
same,IC50,second compound 1 µM,> 300 nM
same,IC50,second compound 3.16 µM,> 300 nM
same,IC50,second compound 10 µM,> 300 nM
same,"viability, T/C",[21],104%
same,"viability, T/C",[22],94.2%
same,"viability, T/C",[1],103%
same,"viability, T/C",[2],108%
same,"viability, T/C",[3],116%
same,"viability, T/C",[4],103%
same,"viability, T/C",[23],105%
same,"viability, T/C",[24],104%
same,"viability, T/C",[5],94.2%
same,"viability, T/C",[6],101%
same,"viability, T/C",[7],113%
same,"viability, T/C",[8],105%
same,"viability, T/C",[25],107%
same,"viability, T/C",[26],104%
same,"viability, T/C",[9],112%
same,"viability, T/C",[10],110%
same,"viability, T/C",[11],112%
same,"viability, T/C",[12],118%
same,"viability, T/C",[27],106%
same,"viability, T/C",[28],101%
same,"viability, T/C",[13],110%
same,"viability, T/C",[14],114%
same,"viability, T/C",[15],120%
same,"viability, T/C",[16],127%
same,"viability, T/C",[29],108%
same,"viability, T/C",[30],116%
same,"viability, T/C",[17],118%
same,"viability, T/C",[18],114%
same,"viability, T/C",[19],111%
same,"viability, T/C",[20],112%
